Data taken from patent US20260201283A1, “SOLVENT COMPOSITION” (Dow Global Technologies LLC, priority 2022, published 2026).
Like-named read-outs stand apart in the source and are kept apart here.

How the values were obtained:
[1] = at 25° C., literature values as published in Wikipedia, cited from earlier work
[2] = Solvency of solvent compositions for Monomer A and Monomer B (height of solid residue); assay type: physicochemical; conditions: for concentration of monomer in the final solution: in each of the samples with solvency of 100% (NMF, IE1, IE2, IE3, IE4)
Procedure: For every sample, the height of the monomer mixture in the vial was 4 mm. The vials were placed in an oven at 54° C. without agitation for 13 hours. The vials returned to room temperature and were photographed again with the PICA-II instrument. The height of the solid residue was observed. It is considered that the residue (if present) was undissolved Monomer A, undissolved Monomer B, or a mixture thereof. The solvency % of each solvent composition was determined as follows: […]

Compound | concentration of monomer in the final solution [2] | Water Solubility [1] | other results
CCCCOCCOCCO [DBE, diethylene glycol n-butyl ether] | – | – | Water Solubility ([1]; in words): soluble
CNC=O [NMF, n-methylformamide, reference compound] | – | – | Solvency (%) ([2]; 0.125 g Monomer A + 0.125 g Monomer B in 2.5 g solvent, 54° C. without agitation for 13 hours, then room temperature): 100%; Quality as solvent for Monomer A and Monomer B ([2]; judgement in words based on Table 4): good solvent
O=C1OC(=O)c2cc(Oc3ccc4c(c3)C(=O)OC4=O)ccc21 [Monomer A] | 5 % by weight based on the weight of the solvent composition | – | –
NC(N)=O [Urea] | – | 545 mg/mL | –
OCCOc1ccccc1 [POE, 2-phenoxyethanol] | – | 26 g/kg | –
Nc1ccc(-c2ccc(N)cc2C(F)(F)F)c(C(F)(F)F)c1 [Monomer B] | 5 % by weight based on the weight of the solvent composition | – | –
